Columns and labels:
Format in all cases: physicochemical
[1] = Storage stability at 20° C. and 25° C. calculated by Arrhenius equation, Example 4B; conditions: for possible storage period in a stable state: β cryptoxanthin-containing waters of Examples 1B, 2B, and 3B
Description: With respect to the β cryptoxanthin-containing waters prepared in Examples 1B, 2B, and 3B, storage stability at 20° C. and 25° C. was determined. Determination of the storage stability was performed in the same manner as in Example 4A.

[2] = β cryptoxanthin stabilizing test, Example 1A (water from Citrus unshiu paste with additive L-ascorbic acid, stored at 40° C.); conditions: 0.002 parts by mass β cryptoxanthin (paste) in water
Description: The prepared paste derived from Citrus unshiu and water were mixed. Thus, a mixed solution was prepared. The mixing was conducted so that a mass ratio between β cryptoxanthin contained in the paste and the mixed water became 1 mg:50 g (0.002 parts by mass of β cryptoxanthin with respect to 100 parts by mass of finally obtained β cryptoxanthin-containing water). Vitamin C (L-ascorbic acid) was added to the mixed solution, which was then mixed by stirring. Thus, β cryptoxanthin-containing waters were prepared. The total amounts of L-ascorbic acid in the respective β cryptoxanthin-containing waters were set to 0.005, 0.01, 0.02, 0.05, 0.1, and 0.2 parts by mass with respect to 100 parts by mass of entire β cryptoxanthin-containing water by adding vitamin C. As a blank, a β cryptoxanthin-containing water was prepared in the same manner as described above except that vitamin C (L-ascorbic acid) was not added to the mixed solution. 50 g of six types of the β cryptoxanthin-containing waters and 50 g of the f3-cryptoxanthin-containing water as a blank were filled in the respective brown bottles. Thereafter, the brown bottles were subjected to a heat sterilization treatment under the condition at 90° C. for 30 minutes, which were then stored at 40° C. Sampling was conducted on a storage start date, after one month from the storage start date, and after two months from the same. The respective amounts of β cryptoxanthin in samples were measured by HPLC as shown below. Then, assuming that the amount of β cryptoxanthin on the storage start date was 100%, residual ratios of β cryptoxanthin were determined. The samples were treated at 70° C. for 30 minutes under alkaline conditions before being subjected to HPLC. By this treatment, β cryptoxanthin in the samples was saponified and was converted to a free form. After the treatment, the samples were subjected to a liquid-liquid extraction and were then concentrated. Thus, samples for HPLC were obtained. In the measurements of the amounts of β cryptoxanthin by HPLC, a HPLC system to which a column (J'sphere ODS-M80 (product name) with 250×4.6 mm I.D, produced by YMC Co., Ltd.) had been connected was used, and absorbances at 455 nm were measured by a UV detector ([…] (product name), produced by Hitachi Ltd.). Conditions of the column were as follows. • Mobile phase: acetonitrile/tetrahydrofuran (volume ratio: 95/5) containing 0.1% acetic acid and 50 ppm of α-tocopherol • Flow rate: 1.0 mL/minute • Column temperature: 55° C.

[3] = β cryptoxanthin stabilizing test, Example 2A (water from Citrus unshiu powder with additive L-ascorbic acid, stored at 40° C.); conditions: 0.0022 parts by mass β cryptoxanthin (powder) in water
Description: The prepared powder derived from Citrus unshiu and water were mixed. Thus, a mixed solution was prepared. The mixing was conducted so that a mass ratio between β cryptoxanthin contained in the powder and the mixed water became 1 mg:50 g (0.0022 parts by mass of β cryptoxanthin with respect to 100 parts by mass of finally obtained β cryptoxanthin-containing water). Vitamin C (L-ascorbic acid) was added to the mixed solution, which was then mixed by stirring. Thus, β cryptoxanthin-containing waters were prepared. The total amounts of L-ascorbic acid in the respective β cryptoxanthin-containing waters were set to 0.005, 0.01, 0.02, 0.1, and 0.2 parts by mass with respect to 100 parts by mass of entire β cryptoxanthin-containing water by adding vitamin C. 50 g of five types of the β cryptoxanthin-containing waters were filled in the respective brown bottles. Thereafter, the brown bottles were subjected to a heat sterilization treatment under the condition at 90° C. for 30 minutes, which were then stored at 40° C. Sampling was conducted on a storage start date and after two months from the same. The respective amounts of β cryptoxanthin in samples were measured in the same manner as in Example 1A. Then, assuming that the amount of β cryptoxanthin on the storage start date was 100%, residual ratios of β cryptoxanthin were determined.

[4] = β cryptoxanthin stabilizing test, Example 3B (water from concentrated liquid, varied β cryptoxanthin concentration, stored at 45° C.)
Description: The prepared concentrated liquid derived from Citrus unshiu and water were mixed. Thus, β cryptoxanthin-containing waters were prepared. In the mixing, concentrations of the β cryptoxanthin were set to predetermined parts by mass with respect to 100 parts by mass of a combination of the water and components contained in the water. The predetermined parts by mass were 0.0007, 0.0015, 0.0025, 0.0053, and 0.0072 parts by mass. Thus, five types of β cryptoxanthin-containing waters each having a different concentration of the β cryptoxanthin were prepared. Each of the β cryptoxanthin-containing waters was sufficiently stirred. Thereafter 90 g of the resultant β cryptoxanthin-containing water was filled in an aluminum pouch, which was then sterilized under the condition at 85° C. for 30 minutes.
Five types of the β cryptoxanthin-containing waters of the example were stored at 45° C. for one month. Sampling was conducted on a storage start date and after one month from the storage start date. The respective amounts of β cryptoxanthin in samples were measured by HPLC in the same manner as in Example 1B. Then, assuming that the amount of β cryptoxanthin on the storage start date was 100%, residual ratios of β cryptoxanthin were determined.

[5] = additive L-ascorbic acid 0 parts by mass (blank)
[6] = additive L-ascorbic acid 0.005 parts by mass
[7] = additive L-ascorbic acid 0.01 parts by mass
[8] = additive L-ascorbic acid 0.02 parts by mass
[9] = additive L-ascorbic acid 0.05 parts by mass
[10] = additive L-ascorbic acid 0.1 parts by mass
[11] = additive L-ascorbic acid 0.2 parts by mass

CC1=C(/C=C/C(C)=C/C=C/C(C)=C/C=C/C=C(C)/C=C/C=C(C)/C=C/C2=C(C)C[C@@H](O)CC2(C)C)C(C)(C)CCC1 [β cryptoxanthin]
storage in a stable state at normal temperature ([1]; Example 4B, normal temperature (20° C. to 25° C.)): two years or more | possible storage period in a stable state ([1]; 20° C.): about 32.7 months | possible storage period in a stable state ([1]; 25° C.): about 15.6 months | Residual ratio of β cryptoxanthin Storage for one month (%) [2, 5]: 76.9% | Residual ratio of β cryptoxanthin Storage for two months (%) [2, 5]: 29.9% | Residual ratio of β cryptoxanthin Storage for one month (%) [2, 6]: 83.8% | Residual ratio of β cryptoxanthin Storage for two months (%) [2, 6]: 48.8% | Residual ratio of β cryptoxanthin Storage for one month (%) [2, 7]: 96.7% | Residual ratio of β cryptoxanthin Storage for two months (%) [2, 7]: 78.9% | Residual ratio of β cryptoxanthin Storage for one month (%) [2, 8]: 100% | Residual ratio of β cryptoxanthin Storage for two months (%) [2, 8]: 100% | Residual ratio of β cryptoxanthin Storage for one month (%) [2, 9]: 98.0% | Residual ratio of β cryptoxanthin Storage for two months (%) [2, 9]: 99.0% | Residual ratio of β cryptoxanthin Storage for one month (%) [2, 10]: 94.4% | Residual ratio of β cryptoxanthin Storage for two months (%) [2, 10]: 94.7% | Residual ratio of β cryptoxanthin Storage for one month (%) [2, 11]: 68.3% | Residual ratio of β cryptoxanthin Storage for two months (%) [2, 11]: 31.3% | Residual ratio of β cryptoxanthin Storage for two months (%) [3, 6]: 62.5% | Residual ratio of β cryptoxanthin Storage for two months (%) [3, 7]: 75.5% | Residual ratio of β cryptoxanthin Storage for two months (%) [3, 8]: 92.0% | Residual ratio of β cryptoxanthin Storage for two months (%) [3, 10]: 100% | Residual ratio of β cryptoxanthin Storage for two months (%) [3, 11]: 31.9% | Residual ratio of β cryptoxanthin Storage for one month (%) ([4]; β cryptoxanthin 0.0007 parts by mass (concentrated liquid) in water): 42.6% | Residual ratio of β cryptoxanthin Storage for one month (%) ([4]; β cryptoxanthin 0.0015 parts by mass (concentrated liquid) in water): 78.0% | Residual ratio of β cryptoxanthin Storage for one month (%) ([4]; β cryptoxanthin 0.0025 parts by mass (concentrated liquid) in water): 95.8% | Residual ratio of β cryptoxanthin Storage for one month (%) ([4]; β cryptoxanthin 0.0053 parts by mass (concentrated liquid) in water): 96.6% | Residual ratio of β cryptoxanthin Storage for one month (%) ([4]; β cryptoxanthin 0.0072 parts by mass (concentrated liquid) in water): 100.8%
